Experimental findings from patent US6521262B2, “Solid instant-release forms of administration and process for producing the same” (Heidelberg Pharma Holding GmbH, priority 1996, dated 2003) are described below.

Regarding `CCCCCCCCCCCCSCC(COP(=O)([O-])OCC1OC(n2cc(C)c(=O)[nH]c2=O)CC1N=[N+]=[N-])OCCCCCCCCCC.[Na+]` (centres unmarked) [Example 1 active substance, Na salt of 3′-azido-3′-deoxy-5′-thymidylic acid-mono[3-(dodecyl-thio)-2-decyloxypropyl]-ester], where the note is “aqueous 7% solution of the active substance”, the “viscosity of the solution” value is listed as 500-600 mpa*sec.
As for `CCCCCCCCCCCCSCC(COP(=O)([O-])OCC1OC(n2cc(C)c(=O)[nH]c2=O)CC1F)OCCCCCCCCCC.[Na+]` (centres unmarked) [Example 3 active substance, Na salt of 3′-fluoro-3′-deoxy-5′-thymidylic acid-mono[3-(dodecyl-thio)-2-decyloxypropyl]-ester], the viscosity (2% aqueous solution of the active substance) was determined as 6 mpas*sec.
